Measured values from PMC8225008, “Development of Non-Ethoxypropanoic Acid Type Cryptochrome Inhibitors with Circadian Molecular Clock-Enhancing Activity by Bioisosteric Replacement” (Pharmaceuticals, 2021).

Experiments:
[1] = In vivo pharmacokinetics in rats after IV or PO administration; design: species or system Sprague Dawley (SD) male rats; conditions: male, Sprague Dawley, rat, oral 5 mg/kg, measured as 2d form in plasma
Experimental: For in vivo pharmacokinetic studies, Sprague Dawley (SD) male rats (weighing 270–280 g) were purchased from Orient Bio Inc. (Seongnam, Korea). Experimental protocols involving animal use were carefully reviewed and approved by the Institutional Animal Care and Use Committee at Gachon University. Prior to studies, animals fasted for 18 h, but with free access to water. Compound 5d or 2d was dissolved in a dosing vehicle consisting of PEG400, normal saline, and dimethylsulfoxide in a ratio of 6:3:1 (v/v/v%) to make a 2 mg/mL dosing solution. […]
To determine drug concentration levels in plasma, the Agilent 1290 UHPLC-DAD system with Polar RP column (3 μm, 150 mm × 2 mm ID., Phenomenex) was used for chromatographic separations. […] The total run time was 4.4 min for samples which were monitored at 260 nm. […]
(§1) The EC50 values for luciferase reporter assay were calculated based on a logistic four-parametric equation using the mean values of intrinsic activation (SigmaPlot 10.0; Systat Software Inc., San Jose, CA, USA). The IC50 and t1/2 values for the cytochrome P450 inhibition assay and metabolic stability test were calculated by WinNonlin software (Pharsight, Mountain View, CA, USA). Pharmacokinetic parameters were calculated using non-compartmental analysis (WinNonlin v.8.3; Pharsight, Mountain View, CA, USA). […]

[2] = target: T1, hCRY1 (Homo sapiens, UniProt Q16526); assay: Surface plasmon resonance, CRY1; assay type: binding; design: GST; purchased MyBioSource; host or cells: baculovirus expression system; conditions: SPR, His-tagged CRY1, Langmuir 1:1 model
T1 sequence (Q16526 1-586): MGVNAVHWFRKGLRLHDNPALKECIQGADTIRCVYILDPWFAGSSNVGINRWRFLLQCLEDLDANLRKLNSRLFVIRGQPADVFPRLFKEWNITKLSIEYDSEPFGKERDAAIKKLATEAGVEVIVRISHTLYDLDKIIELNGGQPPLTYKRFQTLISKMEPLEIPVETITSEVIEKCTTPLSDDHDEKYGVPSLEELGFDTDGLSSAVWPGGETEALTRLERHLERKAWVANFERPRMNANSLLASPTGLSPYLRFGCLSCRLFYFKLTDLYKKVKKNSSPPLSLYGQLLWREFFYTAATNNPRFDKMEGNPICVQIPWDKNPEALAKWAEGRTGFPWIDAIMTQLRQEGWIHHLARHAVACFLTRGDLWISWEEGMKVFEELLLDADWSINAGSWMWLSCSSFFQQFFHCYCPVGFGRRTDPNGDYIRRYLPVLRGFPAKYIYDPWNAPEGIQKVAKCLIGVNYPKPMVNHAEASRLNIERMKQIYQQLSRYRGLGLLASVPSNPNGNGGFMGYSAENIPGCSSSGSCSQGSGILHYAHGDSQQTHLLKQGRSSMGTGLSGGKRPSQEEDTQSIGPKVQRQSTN
Experimental: We used a ProteOn XPR36 system (Bio-Rad, Hercules, CA, USA) equipped with a HTE sensor chip (high capacity tris-NTA for histidine-tagged […] capture, Bio-Rad) for surface plasmon resonance analyses. Purified target proteins (6xHis- and GST-tagged hCRY1 and hCRY2) were prepared by a baculovirus expression system (MyBioSource, San Diego, CA, USA). Phosphate buffered saline (PBS) plus 0.005% Tween 20 was used as the running buffer. The 6xHis-hCRY1 and 6xHis-hCRY2 proteins were immobilized onto separate channels of a HTE chip by injecting 210 μL protein sample (2.0 μg/mL) into flow cells (30 μL/min) to allow saturation. Serially diluted compound 2d samples (50–800 μM) were prepared in 4% DMSO in TBS-T buffer. […] Recorded resonance units (RU) were normalized and plotted against chemical concentration. […]
as §1

half-life [1]: 6.52 ± 0.793 h
AUC ([1]; read-out: AUCinfinite (converted)): 184 µg·h/mL
Kd [2]: 389 µM
Structure (SMILES): CC(=NOCc1ccc([N+](=O)[O-])cc1)c1cccc(OCC(=O)O)c1 [Compound 2d, 2-(3-(1-(((4-nitrobenzyl)oxy)imino)ethyl)phenoxy)acetic acid]
